Measured values: patent US20200207820A1, “ANTIVIRAL, ANTIFIBROTIC AND ANTICANCER ACTIVITIES OF ROYAL-JELLY PROTEINS” (priority 2017, published 2020)
Entries after “also recorded” stand apart in the source; their conditions may differ.

How the values were obtained:
[1] = system: HCV; assay: Qualitative screening for HCV (+) strand RNA by RT-nested PCR in infected PBMCs and HepG-2 cells; type: cell-based, Hepatitis C virus; conditions: HCV-infected PBMCs and HepG-2 cells, 72 h; RJ 0.2 and 1 mg, PFs 1 mg, MRJPs 250 μg, SOV 4 mg (PBMCs only)
Method: (§1) PBMCs were obtained by Ficoll-Hypaque density gradient centrifugation method as described previously. In brief, the blood samples from healthy volunteers were diluted with equal volume of PBS, carefully layered on Ficoll-Hypaque, and centrifuged at 2000 rpm, 25° C. for 30 min. Then the undisturbed PBMCs layer (interface) was carefully transferred out, washed with 40 ml RPMI-1640 medium, and centrifuged at 1650 rpm for 10 min. Finally, the supernatant was removed and the cells were suspended in 5 ml of RPMI-1640 medium containing 10% FBS and counted using trypan blue stain.
(§2) HepG-2 cells were grown in RPMI-1640 medium (HyClone) supplemented with 10% heat-inactivated FBS.
(§3) Serum samples were obtained from HCV and HBV infected […] patients […] after agreement by the ethics committee. The HCV and HBV samples were positive for genotype 4a and D, respectively. The infected patients were neither under treatment prior to the study nor co-infected. The sera were kept at −80° C. until use. […]
After cellular infection, the infected medium was replaced with a fresh RPMI-1640 medium containing 10% FBS for positive control wells. […] The HCV (+) strand was detected by reverse transcription-nested polymerase chain reaction (RT-nested PCR) using the Ready-To-Go RT-PCR beads (Amersham Pharmacia Biotech, Piscataway, N.J., USA) following the instructions. […]

[2] = system: HCV; assay: Quantitative analysis of intracellular HCV-RNA (Cobas Ampliprep TaqMan); type: cell-based, Hepatitis C virus; conditions: PBMCs and HepG-2 cells, 72 h; SOV in PBMCs only
Method: as §1, §2, §3
(§4) SOV at the concentration of 4 mg was incubated only with HCV or HBV-infected PBMCs due to its potent anti-cancer effect. […] Then the HCV-RNA and HBV-DNA within these cells were quantified using the fully automated Cobas Ampliprep TaqMan Analyzer (CAP-CTM). This technique is one of the most recent techniques that used for diagnosis of viral hepatitis quantitatively. […]

[3] = system: hepatocytes; assay: In vitro assessment of liver fibrosis: CCl4-induced fibrosis in hepatocytes; type: cell-based, Albino rats
Method: Hepatocytes were isolated from the liver of two male Albino rats 1 week of age. Rats were anesthetized, then liver was dissected, washed and incubated for 15 min with 10× penicillin and streptomycin. Afterward, the liver was washed using PBS, minced and incubated for 30 min with 3 U/mL of collagenase I with gentle shaking to obtain the cell suspension. The solution was centrifuged for […] at 1000 rpm and the pellet (hepatocytes) was washed, suspended in William's E medium containing 10% FBS and incubated at […] in CO2 incubator. After 90% cell confluent, hepatocytes were passaged with trypsin-EDTA. Then cells were stained with trypan blue, checked for viability and counted using the phase contrast inverted microscope (Olympus IX 81, Tokyo, Japan).
For induction of fibrosis, hepatocytes were incubated with various concentrations (0.13-1.30 mM) of CCl4 for 48 h. At the end of the incubation period, the cell viability was assessed and the IC50 value (half maximal inhibitory concentration of CCl4 to the hepatocytes growth) was calculated by the GraphPad Instat software version 3. This value was used for in vitro induction of fibrosis in hepatocytes (FM). After induction, Fb1 was incubated with the safe concentration of each of the studied compounds and incubated for 72 h at 5% CO2 and 37° C. The normal cells and the untreated Fb1 (Fb) were involved as negative and positive control cells, respectively.
At the end of the incubation period, media were collected and used in the assessment of the hepatocyte damage indices. However, cells were examined morphologically for identification of apoptosis.
Alanine and aspartate aminotransferases (ALT and AST), and albumin were determined using available commercial kits (RAM, Egypt). TNF-α (ELISA kit, RayBiotech, USA) and collagen IV (ELISA kit, Kamiya Biomedical) were determined following the manufacturer's instructions. Nitric oxide (NO) level was assessed by measurement of the nitrite using the Griess reaction, which produced colored azo dye with a maximum absorbance at 490 nm. Hydroxyproline content in the medium was measured using chloramines T and […] solutions. The absorbance of the produced color was read spectrophotometrically at 560 nm and the concentration was determined from the hydroxyproline calibration curve.
Apoptosis was investigated by double staining cells after washing with PBS with 100 μg/mL of ethidium bromide (EB) and acridine orange (AO) as described previously and then visualized under the fluorescent phase contrast microscope.

[4] = system: HBV; assay: Quantitative analysis of intracellular HBV-DNA (Cobas Ampliprep TaqMan); type: cell-based, hepatitis B virus; conditions: PBMCs and HepG-2 cells, 72 h; SOV in PBMCs only
Method: as §1, §2, §3, §4

[5] = Acute toxicity (Karber's method); type: in vivo, male Albino rats
Method: Karber's method was used to study the acute toxicity effect of RJ in comparison with SOV using male Albino rats and the median lethal dosage (LD50) was calculated.
Fifty-five male Albino rats (80-120 g) were purchased from MISR University for Science and Technology (animal welfare assurance number A5865-01). Animals were housed in metal cages and allowed free access to a standard commercial diet and tap water. Rats were kept under conventional conditions of temperature, humidity and twelve hours light/dark cycle. All rats were acclimatized to the laboratory environment for one week prior to handling and were observed daily for abnormal signs. Handling of animals complied with the international guide for the care and use of laboratory animals (National Research Council, 1996).
Animals were divided into eleven groups (five animals in each) starting from group I to group X beside the control (received only water as the vehicle). Groups from (I) to (V) were administered RJ intraperitoneally, while groups from (VI) to (X) were orally received SOV using the gavage tube. RJ and SOV were given to the animals at various doses (140, 350, 700, 2500 and 5000 mg/kg bw), one dose for each group of animals (group I and VI received the lowest dose).
All animals were left for 24 h after RJ or SOV administration, and then the number of mortality in each group was recorded for calculation of the LD50 value. Also, the weights of animals in each group were recorded before sacrificing by decapitation. Blood samples were collected in heparin tubes by cardiac puncture for assessment of the erythrocytes, hematocrit (HCT), hematimetric indices, hemoglobin (Hb), platelets, and leukocytes (full and differential counts). In addition, ALT and AST, total proteins, albumin, urea, creatinine, sodium, potassium, triglycerides (TG) and cholesterol were determined using available commercial kits (RAM, Egypt). The vital organs including liver, lung, kidney, and spleen were carefully excised, weighed and examined.

[6] = system: HepG-2 cell line; assay: Anti-cancer assay (MTT); type: cell-based, human; conditions: HepG-2 cells, 72 h
Method: The cytotoxic effect of RJ and its isolated PFs against HepG-2 cell line were evaluated. The cell viability was determined by MTT assay to investigate the cytotoxicity. Cells (3×10^3/well) were seeded in 96-well plate and left to attach for overnight. Serial concentrations (6.25-100 μM) of each of the tested compounds were added to the attached cells and incubated for 72 h at 37° C. in an atmosphere of 5% CO2 and the untreated cells were included as negative control. Then, 20 μl of MTT solution (0.5 mg/ml) was added to each well and the plate was incubated at 37° C. and 5% CO2 for 4 h. The medium with MTT was replaced by 150 μl of DMSO and the absorbance of the produced color was read at 570 nm by the microplate reader. The concentration of each of the studied compounds that inhibit the cancer cell growth by 50% (IC50 values) was determined from the dose-response curves. Additionally, the morphological changes of the tumor cells were examined using the phase-contrast microscope.

[7] = SOV oral 2500 and 5000 mg/kg bw

## CC(C)OC(=O)[C@H](C)N[P@](=O)(OC[C@H]1O[C@@H](n2ccc(=O)[nH]c2=O)[C@](C)(F)[C@@H]1O)Oc1ccccc1 [SOV, Sofosbuvir]
[1]
  anti-HCV effect (HCV (+) strand RNA, RT-nested PCR): anti-HCV effect
[2]
  efficacy against HCV (intracellular HCV): less anti-HCV
[3]; CCl4-induced fibrosis in hepatocytes (Fb1)
  collagen and hydroxyproline levels: suppressive effect
[3]; CCl4-induced fibrosis in hepatocytes, compared with SM and SOV
  antifibrotic / therapeutic effect overall: less antifibrotic activities
[3]; fibrotic cells (Fb1)
  inflammatory mediators' level (NO and TNF-α): anti-inflammatory effect
[3]; fibrotic hepatocytes (Fb1), 72 h treatment, 200 μg/mL
  hepatocytes morphology / apoptosis (acridine orange/ethidium bromide staining): less potency
[4]
  efficacy against HBV / activity of HBV (intracellular HBV): increases the activity of HBV
[5]; 24 h, all doses, versus control group
  body weights: didn't cause any significant change; also recorded: no significant change
[5]; 24 h after administration
  hematological parameters: Slight changes
[5]; SOV 350-5000 mg/kg bw
  serum urea level: significant elevation
[5]; SOV 2500, 5000 mg/kg bw
  potassium level: depleted
  serum sodium level: elevated
[5]; SOV 2500 and 5000 mg/kg bw
  ALT activity: didn't affect
  activity of AST: significantly elevated
  serum level of albumin: significantly reduce
  total proteins level: didn't affect
[5]; SOV nearly at all doses
  TG level: significantly increased
  cholesterol level: significantly increased
[5]; SOV oral 350 to 5000 mg/kg bw
  % organ-body weight ratio, spleen: enlargement
[5]; [7]
  % organ-body weight ratio, liver: significant enlargement
  % organ-body weight ratio, lung: significant enlargement
[5]; SOV oral all given doses (140-5000 mg/kg bw)
  % organ-body weight ratio, kidney: significant enlargement
[5]; after 24 h, all studied doses (140-5000 mg/kg bw), RJ intraperitoneal, SOV oral
  mortality: no mortality
[5]; rats, all the studied doses
  toxic dose: ≥ 140 mg/kg
[5]; rats, liver, lung, kidney, spleen
  toxicity on vital organs: highly toxic effects on kidney, spleen and lung and less toxicity on the liver; also recorded: highly toxic
[6]
  cytotoxic (anticancer) effect: potent activity
[6]; listed as Sovaldi
  cytotoxic (anticancer) effect: more potent anticancer effect than the RJ proteins

B1: MRJP2: major royal jelly protein 2, bound protein purified from PF50 by CM-Sephadex ion-exchange chromatography (protein, UniProt O77061 18-452, looked up)
Major royal jelly protein 2: AIVRENSPRNLEKSLNVIHEWKYFDYDFGSEERRQAAIQSGEYDHTKNYPFDVDQWRDKTFVTILRYDGVPSTLNVISGKTGKGGRLLKPYPDWSFAEFKDCSKIVSAFKIAIDKFDRLWVLDSGLVNRTVPVCAPKLHVFDLKTSNHLKQIEIPHDIAVNATTGKGGLVSLAVQAIDLANTLVYMADHKGDALIVYQNADDSFHRLTSNTFDYDPRYAKMTIDGESFTLKNGICGMALSPVTNNLYYSPLASHGLYYVNTAPFMKSQFGENNVQYQGSEDILNTQSLAKAVSKNGVLFVGLVGNSAVGCWNEHQSLQRQNLEMVAQNDRTLQMIAGMKIKEELPHFVGSNKPVKDEYMLVLSNRMQKIVNDDFNFDDVNFRILGANVKELIRNTHCVNNNQNDNIQNTNNQNDNNQKNNKKNANNQKNNNQNDN
[1]
  anti-HCV effect (HCV (+) strand RNA, RT-nested PCR): anti-HCV effect
[3]; fibrotic cells (Fb1)
  inflammatory mediators' level (NO and TNF-α): Normalization
  liver function parameters (ALT, AST, albumin) in medium: Improvement
[6]
  cytotoxic (anticancer) effect: nearly as potent as SOY and 5-FU
